According to patent US8546320B2, “Hsp9O-targeted anti-cancer chimeric peptide” (Kyoto University, priority 2008, dated 2013):
Where a SMILES comes first, the peptide text is derived from it.

Legend:
[1] = tested on: cancer cells; test: Cell viability assay, summary statements on cancer cells; assay type: cell-based; settings: single mutation in TPR or Antp region of Antp-TPR
[2] = tested on: Caki-1; assay type: cell-based, human; settings: Caki-1; for Anti-cancer activity (% relative to wild-type peptide) / Decrease in cell survival rate (% relative to wild-type peptide): wild-type peptide = 100%
Protocol: A total of 3×10^3 cells were inoculated per well on a 96 well plate and cultured in a medium containing 10% FBS for 24 hours, and incubated with 100 μl of a peptide having a gradual increase in concentration at 37° C. for 48 to 72 hours. The survival rate of the cells was measured by using WST-8 solution (Cell Count Reagent SF; Nacalai Tesque, Inc.).
(§1) Respective variant peptides were subjected to cell viability assay. Specifically, Caki-1 (American Type Culture Collection (Manassas, Va.) was inoculated in a total amount of 3×10^3 cells per well on a 96 well plate (Nunc™); the cells were cultured in a medium (DMEM (Tesque, Inc.) containing 10% FBS (fetal bovine serum; Biowest)) for 24 hours and incubated with 100 μl of a peptide having a gradual increase in concentration at 37° C. for 48 to 72 hours. The cell survival rate was measured by using WST-8 solution (Cell Count Reagent SF; Nacalai Tesque, Inc.) and compared with that of the wild-type Antp-TPR peptide.
as §1, with “medium” for “medium (DMEM (Tesque, Inc.)”, “FBS” for “FBS (fetal bovine serum; Biowest))”

SMILES	effect compared with the wild-type protein (summary of mutations) [1]	killing effect compared with the wild-type peptide [2]	Anti-cancer activity (% relative to wild-type peptide) [2]	Decrease in cell survival rate (% relative to wild-type peptide) [2]
CC[C@H](C)[C@H](NC(=O)[C@H](CCCNC(=N)N)NC(=O)[C@H](C)NC(=O)[C@H](Cc1ccc(O)cc1)NC(=O)[C@H](C)NC(=O)[C@H](CCCCN)NC(=O)[C@H](CCCCN)NC(=O)[C@H](CCCCN)NC(=O)[C@H](Cc1c[nH]c2ccccc12)NC(=O)[C@H](CCCCN)NC(=O)[C@H](CCSC)NC(=O)[C@H](CCCNC(=N)N)NC(=O)[C@H](CCCNC(=N)N)NC(=O)[C@H](CCC(N)=O)NC(=O)[C@H](CCC(N)=O)NC(=O)[C@H](Cc1ccccc1)NC(=O)[C@H](Cc1c[nH]c2ccccc12)NC(=O)[C@@H](NC(=O)[C@H](CCCCN)NC(=O)[C@@H](NC(=O)[C@H](CCC(N)=O)NC(=O)[C@@H](N)CCCNC(=N)N)[C@@H](C)CC)[C@@H](C)CC)C(=O)NCC(=O)N[C@@H](CC(N)=O)C(=O)N[C@@H](CO)C(=O)N[C@@H](Cc1ccc(O)cc1)C(=O)N[C@@H](Cc1ccccc1)C(=O)N[C@@H](CCCCN)C(=O)O [Antp N9Q-TPR] (H-RQIKIWFQQRRMKWKKKAYARIGNSYFK-OH; N-terminus and C-terminus assumed)	effect higher than the wild-type protein	stronger than that of the wild-type peptide	110.59%	881.03%
CC[C@H](C)[C@H](NC(=O)[C@H](CCCNC(=N)N)NC(=O)[C@H](C)NC(=O)[C@H](Cc1ccc(O)cc1)NC(=O)[C@H](C)NC(=O)[C@H](CCCCN)NC(=O)[C@H](CCCCN)NC(=O)[C@H](CCCCN)NC(=O)[C@H](Cc1c[nH]c2ccccc12)NC(=O)[C@H](CCCCN)NC(=O)[C@H](CCSC)NC(=O)[C@H](CCCNC(=N)N)NC(=O)[C@H](CCCNC(=N)N)NC(=O)[C@H](CC(N)=O)NC(=O)[C@H](CCC(N)=O)NC(=O)[C@H](Cc1ccccc1)NC(=O)[C@H](Cc1c[nH]c2ccccc12)NC(=O)[C@@H](NC(=O)[C@H](CCCNC(=N)N)NC(=O)[C@@H](NC(=O)[C@H](CCC(N)=O)NC(=O)[C@@H](N)CCCNC(=N)N)[C@@H](C)CC)[C@@H](C)CC)C(=O)NCC(=O)N[C@@H](CC(N)=O)C(=O)N[C@@H](CO)C(=O)N[C@@H](Cc1ccc(O)cc1)C(=O)N[C@@H](Cc1ccccc1)C(=O)N[C@@H](CCCCN)C(=O)O [Antp K4R-TPR] (H-RQIRIWFQNRRMKWKKKAYARIGNSYFK-OH; N-terminus and C-terminus assumed)	effect higher than the wild-type protein	stronger than that of the wild-type peptide	109.86%	573.28%
CC[C@H](C)[C@H](NC(=O)[C@H](CCCNC(=N)N)NC(=O)[C@H](C)NC(=O)[C@H](Cc1ccc(O)cc1)NC(=O)[C@H](C)NC(=O)[C@H](CCCCN)NC(=O)[C@H](CCCCN)NC(=O)[C@H](CCCCN)NC(=O)[C@H](Cc1c[nH]c2ccccc12)NC(=O)[C@H](CCCCN)NC(=O)[C@H](CS)NC(=O)[C@H](CCCNC(=N)N)NC(=O)[C@H](CCCNC(=N)N)NC(=O)[C@H](CC(N)=O)NC(=O)[C@H](CCC(N)=O)NC(=O)[C@H](Cc1ccccc1)NC(=O)[C@H](Cc1c[nH]c2ccccc12)NC(=O)[C@@H](NC(=O)[C@H](CCCCN)NC(=O)[C@@H](NC(=O)[C@H](CCC(N)=O)NC(=O)[C@@H](N)CCCNC(=N)N)[C@@H](C)CC)[C@@H](C)CC)C(=O)NCC(=O)N[C@@H](CC(N)=O)C(=O)N[C@@H](CO)C(=O)N[C@@H](Cc1ccc(O)cc1)C(=O)N[C@@H](Cc1ccccc1)C(=O)N[C@@H](CCCCN)C(=O)O [Antp M12C-TPR] (H-RQIKIWFQNRRCKWKKKAYARIGNSYFK-OH; N-terminus and C-terminus assumed)	effect higher than the wild-type protein	stronger than that of the wild-type peptide	102.68%	128.91%
CC[C@H](C)[C@H](NC(=O)[C@H](CCCNC(=N)N)NC(=O)[C@H](C)NC(=O)[C@H](Cc1ccc(O)cc1)NC(=O)[C@H](C)NC(=O)[C@H](CCCCN)NC(=O)[C@H](CCCCN)NC(=O)[C@H](CCCCN)NC(=O)[C@H](Cc1c[nH]c2ccccc12)NC(=O)[C@H](CCCCN)NC(=O)[C@H](CCSC)NC(=O)[C@H](CCCNC(=N)N)NC(=O)[C@H](CCCNC(=N)N)NC(=O)[C@H](CC(N)=O)NC(=O)[C@H](CCC(N)=O)NC(=O)[C@H](Cc1ccc(O)cc1)NC(=O)[C@H](Cc1c[nH]c2ccccc12)NC(=O)[C@@H](NC(=O)[C@H](CCCCN)NC(=O)[C@@H](NC(=O)[C@H](CCC(N)=O)NC(=O)[C@@H](N)CCCNC(=N)N)[C@@H](C)CC)[C@@H](C)CC)C(=O)NCC(=O)N[C@@H](CC(N)=O)C(=O)N[C@@H](CO)C(=O)N[C@@H](Cc1ccc(O)cc1)C(=O)N[C@@H](Cc1ccccc1)C(=O)N[C@@H](CCCCN)C(=O)O [Antp F7Y-TPR] (H-RQIKIWYQNRRMKWKKKAYARIGNSYFK-OH; N-terminus and C-terminus assumed)	effective but with an effect lower than the wild-type protein		29.86%	14.56%
CC[C@H](C)[C@H](NC(=O)[C@H](CCCNC(=N)N)NC(=O)[C@H](C)NC(=O)[C@H](Cc1ccc(O)cc1)NC(=O)[C@H](C)NC(=O)[C@H](CCCCN)NC(=O)[C@H](CCCCN)NC(=O)[C@H](CCCCN)NC(=O)[C@H](Cc1c[nH]c2ccccc12)NC(=O)[C@H](CCCCN)NC(=O)[C@H](CCSC)NC(=O)[C@H](CCCNC(=N)N)NC(=O)[C@H](CCCNC(=N)N)NC(=O)[C@H](CC(N)=O)NC(=O)[C@H](CCC(N)=O)NC(=O)[C@H](Cc1ccccc1)NC(=O)[C@H](Cc1c[nH]c2ccccc12)NC(=O)[C@@H](NC(=O)[C@H](CCCCN)NC(=O)[C@@H](NC(=O)[C@H](CC(N)=O)NC(=O)[C@@H](N)CCCNC(=N)N)[C@@H](C)CC)[C@@H](C)CC)C(=O)NCC(=O)N[C@@H](CC(N)=O)C(=O)N[C@@H](CO)C(=O)N[C@@H](Cc1ccc(O)cc1)C(=O)N[C@@H](Cc1ccccc1)C(=O)N[C@@H](CCCCN)C(=O)O [Antp Q2N-TPR] (H-RNIKIWFQNRRMKWKKKAYARIGNSYFK-OH; N-terminus and C-terminus assumed)	effect similar to that of the wild-type protein		88.97%	52.02%
CC[C@H](C)[C@H](NC(=O)[C@H](CCCNC(=N)N)NC(=O)[C@H](C)NC(=O)[C@H](Cc1ccc(O)cc1)NC(=O)[C@H](C)NC(=O)[C@H](CCCCN)NC(=O)[C@H](CCCCN)NC(=O)[C@H](CCCCN)NC(=O)[C@H](Cc1c[nH]c2ccccc12)NC(=O)[C@H](CCCCN)NC(=O)[C@H](CCSC)NC(=O)[C@H](CCCNC(=N)N)NC(=O)[C@H](CCCCN)NC(=O)[C@H](CC(N)=O)NC(=O)[C@H](CCC(N)=O)NC(=O)[C@H](Cc1ccccc1)NC(=O)[C@H](Cc1c[nH]c2ccccc12)NC(=O)[C@@H](NC(=O)[C@H](CCCCN)NC(=O)[C@@H](NC(=O)[C@H](CCC(N)=O)NC(=O)[C@@H](N)CCCNC(=N)N)[C@@H](C)CC)[C@@H](C)CC)C(=O)NCC(=O)N[C@@H](CC(N)=O)C(=O)N[C@@H](CO)C(=O)N[C@@H](Cc1ccc(O)cc1)C(=O)N[C@@H](Cc1ccccc1)C(=O)N[C@@H](CCCCN)C(=O)O [Antp R10K-TPR] (H-RQIKIWFQNKRMKWKKKAYARIGNSYFK-OH; N-terminus and C-terminus assumed)	effect similar to that of the wild-type protein	stronger than that of the wild-type peptide	110.30%	727.03%
CC[C@H](C)[C@H](NC(=O)[C@H](CCCNC(=N)N)NC(=O)[C@H](C)NC(=O)[C@H](Cc1ccc(O)cc1)NC(=O)[C@H](C)NC(=O)[C@H](CCCCN)NC(=O)[C@H](CCCCN)NC(=O)[C@H](CCCCN)NC(=O)[C@H](Cc1c[nH]c2ccccc12)NC(=O)[C@H](CCCCN)NC(=O)[C@H](CCSC)NC(=O)[C@H](CCCNC(=N)N)NC(=O)[C@H](CCCNC(=N)N)NC(=O)[C@H](CC(N)=O)NC(=O)[C@H](CC(N)=O)NC(=O)[C@H](Cc1ccccc1)NC(=O)[C@H](Cc1c[nH]c2ccccc12)NC(=O)[C@@H](NC(=O)[C@H](CCCCN)NC(=O)[C@@H](NC(=O)[C@H](CCC(N)=O)NC(=O)[C@@H](N)CCCNC(=N)N)[C@@H](C)CC)[C@@H](C)CC)C(=O)NCC(=O)N[C@@H](CC(N)=O)C(=O)N[C@@H](CO)C(=O)N[C@@H](Cc1ccc(O)cc1)C(=O)N[C@@H](Cc1ccccc1)C(=O)N[C@@H](CCCCN)C(=O)O [Antp Q8N-TPR] (H-RQIKIWFNNRRMKWKKKAYARIGNSYFK-OH; N-terminus and C-terminus assumed)	effect similar to that of the wild-type protein	stronger than that of the wild-type peptide	109.65%	519.29%
